The results in this text go back to patent US9616128B2, “Pharmaceutical compositions comprising paracetamol and process for preparing the same” (Troikaa Pharmaceuticals Ltd, priority 2010, dated 2017).

One series is described as follows: physchem. The settings on record: solubility of paracetamol. As to the method: The solubility of paracetamol in various solvents, such as glycofurol, PEG, ethanol, and propylene glycol were determined by us. […] The challenge lies in tailoring the appropriate solvent system to provide injectables containing paracetamol in 166 mg/ml to 250 mg/ml so that the therapeutic dose of paracetamol (500 mg) can be delivered in 2 to 3 ml without compromising in viscosity of these injectables.

A short description of series [1]: Viscosity of paracetamol injectable solutions. Type of series: physicochemical. To be noted: solution in glycofurol at concentration of 205 mg/ml. The protocol:
The solitary prior art in which the solution of paracetamol ranging from 60 mg/ml (6% w/v) to 150 mg/ml (15% w/v) have been prepared in glycofurol:ethanol:water (about 44:10:46 or about 4:1:4) and glycofurol: water (48:52 or about 1:1). […] 5 CPS and 14.8 CPS respectively. It is to be noted that the concentrations of the solutions reported in the said prior art is between 60 mg/ml to 150 mg/ml.

Usually solubility stands for how much of the substance goes into solution per volume.

Values after ≈ are worked out from the molar mass of the structure shown.

Take `CC(=O)Nc1ccc(O)cc1` [paracetamol, p-acetylaminophenol]: the solubility in the series “physchem” (organic solvent or mixture) is around 205 mg/mL (≈ 1360 mM); in the series “physchem” (water) it was around 14 mg/mL (≈ 92.6 mM). Besides, in series [1], the “viscosity of the paracetamol solution” value is listed as “about 57 CPS”.
